Values quoted from earlier work in patent US12533416B2, “Krill oil for solubilizing poorly water-soluble dietary supplements and pharmaceutically active agents” (ID CARE UG (haftungsbeschränkt), priority 2018, dated 2026).

Details: Class 4 = low solubility

| BCS class (solubility / permeability) | Structure (SMILES) |
| --- | --- |
| BCS Class 4 | Nc1nc2c(ncn2COCCO)c(=O)[nH]1 [Aciclovir, aciclovir] |
| BCS Class 4 | CC[C@H]1OC(=O)[C@H](C)[C@@H](O[C@H]2C[C@@](C)(OC)[C@@H](O)[C@H](C)O2)[C@H](C)[C@@H](O[C@@H]2O[C@H](C)C[C@H](N(C)C)[C@H]2O)[C@](C)(O)C[C@@H](C)CN(C)[C@H](C)[C@@H](O)[C@]1(C)O [Azithromycin, azithromycin] |
